Results published in paper PMC12281424, “A Rac-specific competitive inhibitor of guanine nucleotide binding reduces metastasis in triple-negative breast cancer” (Cell Reports Medicine, 2025).
Where “and” joins values, the source holds several entries; their conditions need not be identical. Equal values may be shown once.

Columns and labels:
EphA8(h) = EphA8(h) (Homo sapiens, UniProt P29322); experiment: Kinase Profiler; type: biochemical
Description: (§3) Blood cell counts, kinase profiler, safety screen, bacterial cytotoxicity, Ames, micronucleus assays were performed by the company Eurofins (France). The kinase profiler was performed by the company Eurofins (Discovery, Panlab and Cerep).

SBK1(h) = SBK1(h) (Homo sapiens, UniProt Q52WX2); experiment: Kinase Profiler; type: biochemical
SBK1(h), sequence (Q52WX2 whole entry): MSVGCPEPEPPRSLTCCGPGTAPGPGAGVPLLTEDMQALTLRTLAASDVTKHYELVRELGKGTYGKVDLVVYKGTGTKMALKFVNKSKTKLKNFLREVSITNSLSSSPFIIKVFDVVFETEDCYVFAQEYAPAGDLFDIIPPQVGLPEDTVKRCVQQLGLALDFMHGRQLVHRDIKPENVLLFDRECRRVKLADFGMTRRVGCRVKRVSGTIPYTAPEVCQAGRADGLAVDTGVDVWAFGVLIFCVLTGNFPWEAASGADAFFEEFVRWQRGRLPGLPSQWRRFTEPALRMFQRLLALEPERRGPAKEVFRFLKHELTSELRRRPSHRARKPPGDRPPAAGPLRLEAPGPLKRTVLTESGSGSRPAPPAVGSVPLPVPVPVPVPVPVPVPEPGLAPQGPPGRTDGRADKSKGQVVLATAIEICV
Description: (§4) The kinase profiler was performed by the company Eurofins (Discovery, Panlab and Cerep).

HIPK3(h) = HIPK3(h) (Homo sapiens, UniProt Q9H422); experiment: Kinase Profiler; type: biochemical
HIPK3(h), sequence (Q9H422 whole entry): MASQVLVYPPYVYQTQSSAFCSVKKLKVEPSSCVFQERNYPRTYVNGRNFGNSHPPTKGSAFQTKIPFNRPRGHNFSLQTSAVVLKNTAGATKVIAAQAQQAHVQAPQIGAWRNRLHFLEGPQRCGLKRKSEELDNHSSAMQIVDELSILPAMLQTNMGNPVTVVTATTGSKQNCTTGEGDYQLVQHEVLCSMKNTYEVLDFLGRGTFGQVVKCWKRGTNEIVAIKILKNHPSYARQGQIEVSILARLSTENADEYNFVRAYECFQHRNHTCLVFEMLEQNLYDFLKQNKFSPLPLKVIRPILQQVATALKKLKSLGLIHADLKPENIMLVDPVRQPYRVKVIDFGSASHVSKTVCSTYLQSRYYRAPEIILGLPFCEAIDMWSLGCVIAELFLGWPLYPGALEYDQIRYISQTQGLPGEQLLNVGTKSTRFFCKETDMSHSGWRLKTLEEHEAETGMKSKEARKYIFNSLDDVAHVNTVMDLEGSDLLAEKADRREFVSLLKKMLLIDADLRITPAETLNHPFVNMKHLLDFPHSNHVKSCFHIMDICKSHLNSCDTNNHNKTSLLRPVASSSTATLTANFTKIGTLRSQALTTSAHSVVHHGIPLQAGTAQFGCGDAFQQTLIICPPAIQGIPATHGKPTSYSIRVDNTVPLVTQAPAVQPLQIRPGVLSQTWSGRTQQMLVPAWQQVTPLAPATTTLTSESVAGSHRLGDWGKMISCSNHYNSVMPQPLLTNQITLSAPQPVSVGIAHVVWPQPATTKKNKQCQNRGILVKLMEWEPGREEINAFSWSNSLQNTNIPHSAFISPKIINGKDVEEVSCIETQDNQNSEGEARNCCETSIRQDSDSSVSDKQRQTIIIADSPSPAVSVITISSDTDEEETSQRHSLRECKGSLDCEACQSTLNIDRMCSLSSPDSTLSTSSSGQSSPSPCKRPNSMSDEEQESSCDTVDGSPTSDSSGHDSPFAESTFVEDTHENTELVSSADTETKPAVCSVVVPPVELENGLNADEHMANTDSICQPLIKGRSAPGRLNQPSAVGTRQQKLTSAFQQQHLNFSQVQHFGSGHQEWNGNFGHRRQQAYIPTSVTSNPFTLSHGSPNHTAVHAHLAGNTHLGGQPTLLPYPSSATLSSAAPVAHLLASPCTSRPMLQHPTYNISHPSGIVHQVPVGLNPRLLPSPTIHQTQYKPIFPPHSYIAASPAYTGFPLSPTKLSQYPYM
Description: as §4

PKCα(h) = PKCα(h) (Homo sapiens, UniProt P17252); experiment: Kinase Profiler; type: biochemical
Description: as §4

HIPK4(h) = HIPK4(h) (Homo sapiens, UniProt Q8NE63); experiment: Kinase Profiler; type: biochemical
Description: as §4

PhKγ1(h) = PhKγ1(h) (Homo sapiens, UniProt Q16816); experiment: Kinase Profiler; type: biochemical
Description: as §3

EphA5(h) = EphA5(h) (Homo sapiens, UniProt P54756); experiment: Kinase Profiler; type: biochemical
Description: as §3

TSSK1(h) = TSSK1(h) (Homo sapiens, UniProt Q9BXA7); experiment: Kinase Profiler; type: biochemical
Description: as §4

CDKL1(h) = CDKL1(h) (Homo sapiens, UniProt Q00532); experiment: Kinase Profiler; type: biochemical
Description: as §4

BTK(R28H)(h) = BTK(R28H)(h) (Homo sapiens, UniProt Q06187, R28H); experiment: Kinase Profiler; type: biochemical
Description: as §3

[1] = target: Protein Tyrosine Kinase, Insulin Receptor (Homo sapiens, UniProt P06213); experiment: Safety screen; type: biochemical
Description: as §4

MLK2(h) = MLK2(h) (Homo sapiens, UniProt Q02779); experiment: Kinase Profiler; type: biochemical
Description: as §3

cKit(V654A)(h) = cKit(V654A)(h) (Homo sapiens, UniProt P10721, V654A); experiment: Kinase Profiler; type: biochemical
Description: as §3

ICK(h) = ICK(h) (Homo sapiens, UniProt Q9UPZ9); experiment: Kinase Profiler; type: biochemical
Description: as §4

RIPK2(h) = RIPK2(h) (Homo sapiens, UniProt O43353); experiment: Kinase Profiler; type: biochemical
Description: as §4

ALK4(h) = ALK4(h) (Homo sapiens, UniProt P36896); experiment: Kinase Profiler; type: biochemical
ALK4(h), sequence (P36896 24-505): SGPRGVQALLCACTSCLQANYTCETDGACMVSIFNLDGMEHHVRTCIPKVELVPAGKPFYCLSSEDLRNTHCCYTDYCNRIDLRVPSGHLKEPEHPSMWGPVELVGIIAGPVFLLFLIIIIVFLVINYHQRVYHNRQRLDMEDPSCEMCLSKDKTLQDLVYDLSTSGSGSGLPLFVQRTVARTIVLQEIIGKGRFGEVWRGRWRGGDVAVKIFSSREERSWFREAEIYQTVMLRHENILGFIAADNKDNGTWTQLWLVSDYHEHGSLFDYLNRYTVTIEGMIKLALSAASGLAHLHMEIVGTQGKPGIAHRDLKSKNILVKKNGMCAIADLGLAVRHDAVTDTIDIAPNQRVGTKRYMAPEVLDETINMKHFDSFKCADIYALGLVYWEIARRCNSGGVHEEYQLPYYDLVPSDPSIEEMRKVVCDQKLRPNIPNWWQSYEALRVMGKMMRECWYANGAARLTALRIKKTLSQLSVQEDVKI
Description: as §4

PKG1α(h) = PKG1α(h) (Homo sapiens, UniProt Q13976); experiment: Kinase Profiler; type: biochemical
Description: as §4

TAO3(h) = TAO3(h) (Homo sapiens, UniProt Q9H2K8); experiment: Kinase Profiler; type: biochemical
TAO3(h), sequence (Q9H2K8 whole entry): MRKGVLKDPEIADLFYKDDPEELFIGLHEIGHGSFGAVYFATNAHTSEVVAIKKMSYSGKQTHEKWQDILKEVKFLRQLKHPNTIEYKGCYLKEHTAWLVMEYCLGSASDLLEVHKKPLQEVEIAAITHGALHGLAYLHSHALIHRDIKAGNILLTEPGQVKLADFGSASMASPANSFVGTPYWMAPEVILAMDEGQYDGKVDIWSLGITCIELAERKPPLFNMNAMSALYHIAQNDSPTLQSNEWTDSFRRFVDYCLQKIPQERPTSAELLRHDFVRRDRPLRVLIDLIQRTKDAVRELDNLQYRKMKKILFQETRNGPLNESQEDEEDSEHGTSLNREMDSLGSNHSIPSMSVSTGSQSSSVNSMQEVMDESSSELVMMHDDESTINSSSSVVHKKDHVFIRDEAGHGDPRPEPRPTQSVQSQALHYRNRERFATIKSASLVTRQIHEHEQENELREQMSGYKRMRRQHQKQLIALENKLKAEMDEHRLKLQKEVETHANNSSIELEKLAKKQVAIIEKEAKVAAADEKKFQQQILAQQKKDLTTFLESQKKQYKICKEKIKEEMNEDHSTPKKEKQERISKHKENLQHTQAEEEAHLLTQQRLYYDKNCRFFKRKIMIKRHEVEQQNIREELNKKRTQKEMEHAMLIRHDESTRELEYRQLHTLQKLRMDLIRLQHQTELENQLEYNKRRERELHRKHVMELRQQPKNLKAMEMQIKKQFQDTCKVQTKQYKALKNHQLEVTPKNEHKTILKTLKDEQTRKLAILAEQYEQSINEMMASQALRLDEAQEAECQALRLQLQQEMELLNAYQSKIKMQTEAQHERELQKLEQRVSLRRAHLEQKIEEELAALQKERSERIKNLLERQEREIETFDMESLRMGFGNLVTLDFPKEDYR
Description: as §3

DYRK3(h) = DYRK3(h) (Homo sapiens, UniProt O43781); experiment: Kinase Profiler; type: biochemical
DYRK3(h), sequence (O43781 whole entry): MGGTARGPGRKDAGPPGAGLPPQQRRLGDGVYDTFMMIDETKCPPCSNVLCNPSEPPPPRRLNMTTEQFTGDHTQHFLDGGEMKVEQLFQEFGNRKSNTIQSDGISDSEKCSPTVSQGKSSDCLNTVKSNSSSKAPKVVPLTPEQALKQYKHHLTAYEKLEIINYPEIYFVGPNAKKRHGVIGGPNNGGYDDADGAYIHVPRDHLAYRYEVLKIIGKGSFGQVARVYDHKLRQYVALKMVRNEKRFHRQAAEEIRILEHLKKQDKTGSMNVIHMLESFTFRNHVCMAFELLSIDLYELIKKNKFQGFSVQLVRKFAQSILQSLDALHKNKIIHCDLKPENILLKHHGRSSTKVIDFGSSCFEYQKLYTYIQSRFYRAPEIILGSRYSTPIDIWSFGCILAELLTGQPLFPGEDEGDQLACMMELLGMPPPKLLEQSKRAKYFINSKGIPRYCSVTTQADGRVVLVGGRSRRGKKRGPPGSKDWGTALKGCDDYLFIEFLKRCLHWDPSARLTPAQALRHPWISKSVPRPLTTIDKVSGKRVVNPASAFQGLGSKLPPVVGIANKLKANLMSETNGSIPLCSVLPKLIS
Description: as §4

MLK4(h) = MLK4(h) (Homo sapiens, UniProt Q5TCX8); experiment: Kinase Profiler; type: biochemical
Description: as §3

EGFR(T790M)(h) = EGFR(T790M)(h) (Homo sapiens, UniProt P00533, T790M); experiment: Kinase Profiler; type: biochemical
Description: as §4

Muscarinic M4 = Muscarinic M4 (Homo sapiens, UniProt P08173); experiment: Safety screen; type: binding
Description: (§5) Blood cell counts, kinase profiler, safety screen, bacterial cytotoxicity, Ames, micronucleus assays were performed by the company Eurofins (France).

Flt4(h) = Flt4(h) (Homo sapiens, UniProt P35916); experiment: Kinase Profiler; type: biochemical
Description: as §4

Tachykinin NK1 = Tachykinin NK1 (Homo sapiens, UniProt P25103); experiment: Safety screen; type: binding
Tachykinin NK1, sequence (P25103 whole entry): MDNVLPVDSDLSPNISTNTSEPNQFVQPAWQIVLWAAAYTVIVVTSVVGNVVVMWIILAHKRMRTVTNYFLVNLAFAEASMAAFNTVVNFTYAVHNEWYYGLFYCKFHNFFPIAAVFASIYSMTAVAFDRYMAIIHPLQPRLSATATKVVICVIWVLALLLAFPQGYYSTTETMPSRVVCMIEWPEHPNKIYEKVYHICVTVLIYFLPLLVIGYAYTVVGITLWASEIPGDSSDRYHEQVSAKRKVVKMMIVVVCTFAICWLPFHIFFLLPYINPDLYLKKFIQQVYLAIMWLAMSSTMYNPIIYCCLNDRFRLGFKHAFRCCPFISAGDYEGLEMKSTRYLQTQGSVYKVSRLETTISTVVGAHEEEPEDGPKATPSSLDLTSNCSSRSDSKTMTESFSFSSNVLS
Description: as §5

SRMS(h) = SRMS(h) (Homo sapiens, UniProt Q9H3Y6); experiment: Kinase Profiler; type: biochemical
Description: as §4

PI3K e (p110a/p65a)(h) = PI3K e (p110a/p65a)(h) (Homo sapiens, UniProt P42336); experiment: Kinase Profiler; type: biochemical
Description: as §4

TA100 = experiment: Bacterial cytotoxicity; type: cell-based
Description: (§1) Data S2. Bacterial cytotoxicity of A41.
(§2) Test Concentration %Effect Cytotoxicity (% of control) […]

TA1535 = experiment: Bacterial cytotoxicity; type: cell-based
Description: as §1, §2

CK1ε(h) = CK1ε(h) (Homo sapiens, UniProt P49674); experiment: Kinase Profiler; type: biochemical
CK1ε(h), sequence (P49674 whole entry): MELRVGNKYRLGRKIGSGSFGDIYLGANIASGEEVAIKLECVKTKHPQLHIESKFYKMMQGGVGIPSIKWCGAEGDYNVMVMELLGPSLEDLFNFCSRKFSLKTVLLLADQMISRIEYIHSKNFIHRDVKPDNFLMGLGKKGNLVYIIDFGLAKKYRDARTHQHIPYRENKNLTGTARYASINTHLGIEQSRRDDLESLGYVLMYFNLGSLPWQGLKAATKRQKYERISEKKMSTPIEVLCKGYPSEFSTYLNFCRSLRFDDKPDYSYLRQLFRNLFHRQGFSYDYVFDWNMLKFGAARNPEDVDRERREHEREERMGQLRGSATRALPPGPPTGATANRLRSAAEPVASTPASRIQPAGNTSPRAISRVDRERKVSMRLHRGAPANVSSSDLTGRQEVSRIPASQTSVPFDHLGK
Description: as §3

STK25(h) = STK25(h) (Homo sapiens, UniProt O00506); experiment: Kinase Profiler; type: biochemical
Description: as §4

Angiotensin AT1 = Angiotensin AT1 (Homo sapiens, UniProt P30556); experiment: Safety screen; type: binding
Description: as §3

EphB3(h) = EphB3(h) (Homo sapiens, UniProt P54753); experiment: Kinase Profiler; type: biochemical
Description: as §3

VRK2(h) = VRK2(h) (Homo sapiens, UniProt Q86Y07); experiment: Kinase Profiler; type: biochemical
Description: as §4

Aurora-C(h) = Aurora-C(h) (Homo sapiens, UniProt Q9UQB9); experiment: Kinase Profiler; type: biochemical
Aurora-C(h), sequence (Q9UQB9 whole entry): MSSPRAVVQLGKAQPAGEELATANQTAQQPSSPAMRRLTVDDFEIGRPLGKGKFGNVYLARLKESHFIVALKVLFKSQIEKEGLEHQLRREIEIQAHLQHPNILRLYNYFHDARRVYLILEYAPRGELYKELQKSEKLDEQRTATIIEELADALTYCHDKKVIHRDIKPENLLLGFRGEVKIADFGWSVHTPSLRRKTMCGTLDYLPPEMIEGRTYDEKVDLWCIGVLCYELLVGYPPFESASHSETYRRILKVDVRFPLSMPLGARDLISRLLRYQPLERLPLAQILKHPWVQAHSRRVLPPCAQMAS
Description: as §3

Txk(h) = Txk(h) (Homo sapiens, UniProt P42681); experiment: Kinase Profiler; type: biochemical
Description: as §3

## COc1ccc(OC)c(NS(=O)(=O)c2ccc(NC(=O)CCSc3ccc(C)cc3)cc2)c1 [Compound A41]
EphA8(h)
  Activity(%): 112%
SBK1(h)
  Activity(%): 101%
HIPK3(h)
  Activity(%): 95%
PKCα(h)
  Activity(%): 105%
HIPK4(h)
  Activity(%): 105%
PhKγ1(h)
  Activity(%): 102%
EphA5(h)
  Activity(%): 110%
TSSK1(h)
  Activity(%): 103%
CDKL1(h)
  Activity(%): 105%
BTK(R28H)(h)
  Activity(%): 102%
[1]
  % inh.: -25%
MLK2(h)
  Activity(%): 109%
cKit(V654A)(h)
  Activity(%): 99%
ICK(h)
  Activity(%): 77%
RIPK2(h)
  Activity(%): 94%
ALK4(h)
  Activity(%): 101%
PKG1α(h)
  Activity(%): 113%
TAO3(h)
  Activity(%): 97%
DYRK3(h)
  Activity(%): 112%
MLK4(h)
  Activity(%): 104%
EGFR(T790M)(h)
  Activity(%): 113%
Muscarinic M4
  % inh.: -1%
Flt4(h)
  Activity(%): 92%
Tachykinin NK1
  % inh.: 41%
SRMS(h)
  Activity(%): 102%
PI3K e (p110a/p65a)(h)
  Activity(%): 102%
TA100; - S9, 1.0E-04 M
  %Effect, single replicates (1st, 2nd, 3rd): 222.5% and 205.5% and 199.0%
  Cytotoxicity (% of control), Mean %Effect: 209.0%
TA100; - S9, 1.0E-05 M
  %Effect, single replicates (1st, 2nd, 3rd): 116.5% and 108.6% and 92.9%
  Cytotoxicity (% of control), Mean %Effect: 106.0%
TA100; - S9, 1.2E-06 M
  %Effect, single replicates (1st, 2nd, 3rd): 103.4% and 99.5% and 92.9%
  Cytotoxicity (% of control), Mean %Effect: 98.6%
TA100; - S9, 2.5E-05 M
  %Effect, single replicates (1st, 2nd, 3rd): 113.9% and 111.3% and 100.8%
  Cytotoxicity (% of control), Mean %Effect: 108.6%
TA100; - S9, 2.5E-06 M
  %Effect, single replicates (1st, 2nd, 3rd): 106.0% and 103.4% and 92.9%
  Cytotoxicity (% of control), Mean %Effect: 100.8%
TA100; - S9, 5.0E-05 M
  %Effect, single replicates (1st, 2nd, 3rd): 112.6% and 53.1% and 102.1%
TA100; - S9, 5.0E-06 M
  %Effect, single replicates (1st, 2nd, 3rd): 116.5% (2×) and 91.6%
  Cytotoxicity (% of control), Mean %Effect: 108.2%
TA100; - S9, 6.0E-07 M
  %Effect, single replicates (1st, 2nd, 3rd): 104.7% (2×) and 98.2%
  Cytotoxicity (% of control), Mean %Effect: 102.5%
TA1535; - S9, 1.0E-04 M
  %Effect, single replicates (1st, 2nd, 3rd): 219.4% and 233.3% and 215.9%
  Cytotoxicity (% of control), Mean %Effect: 222.9%
TA1535; - S9, 1.0E-05 M
  %Effect, single replicates (1st, 2nd, 3rd): 96.4% and 98.7% and 108.0%
  Cytotoxicity (% of control), Mean %Effect: 101.0%
TA1535; - S9, 1.2E-06 M
  %Effect, single replicates (1st, 2nd, 3rd): 91.7% and 97.5% and 88.2%
  Cytotoxicity (% of control), Mean %Effect: 92.5%
TA1535; - S9, 2.5E-05 M
  %Effect, single replicates (1st, 2nd, 3rd): 116.1% and 99.8% and 98.7%
  Cytotoxicity (% of control), Mean %Effect: 104.9%
TA1535; - S9, 2.5E-06 M
  %Effect, single replicates (1st, 2nd, 3rd): 92.9% and 91.7% and 97.5%
  Cytotoxicity (% of control), Mean %Effect: 94.0%
TA1535; - S9, 5.0E-05 M
  %Effect, single replicates (1st, 2nd, 3rd): 168.3% and 163.7% and 175.3%
  Cytotoxicity (% of control), Mean %Effect: 169.1%
TA1535; - S9, 5.0E-06 M
  %Effect, single replicates (1st, 2nd, 3rd): 96.4% and 95.2% and 99.8%
  Cytotoxicity (% of control), Mean %Effect: 97.1%
TA1535; - S9, 6.0E-07 M
  %Effect, single replicates (1st, 2nd, 3rd): 89.4% and 96.4% and 94.0%
  Cytotoxicity (% of control), Mean %Effect: 93.3%
CK1ε(h)
  Activity(%): 108%
STK25(h)
  Activity(%): 98%
Angiotensin AT1
  % inh.: 17%
EphB3(h)
  Activity(%): 113%
VRK2(h)
  Activity(%): 110%
Aurora-C(h)
  Activity(%): 100%
Txk(h)
  Activity(%): 118%
